According to patent publication US20240197666A1, “DITERPENOID COMPOUNDS THAT ACT ON PROTEIN KINASE C (PKC)” (K-Gen Therapeutics, Inc., priority 2021, published 2024):
Read-outs that look alike come from different tables or passages of the source.

Assays:
[1] = tested on: phosphorylation of PKCμ, PKCδ and Erk1/2 in A549 lung cancer cells; assay: Western blot of activation of PKC and downstream target protein in A549 cells; assay type: cell-based; settings: 30 minutes
Experimental: According to the methods described in patent (WO/2017/083783) A549 lung cancer cells (˜3 million cells) were seeded in 10 cm tissue culture dishes (or ˜1 million cells in 6 cm dish) and grown overnight. Cells were then treated with different drugs at indicated concentrations for 30 minutes. Cell lysate preparation, protein quantitation, SDS-PAGE, and Western blotting procedures are described (WO/2017/083783). β-actin or Vinculin was used as loading controls. Imagequant LAS4000 (GE) was used to scan membranes if secondary antibodies anti-mouse IgG HRP conjugate or anti-rabbit IgG HRP conjugate (dilutions from 1:2000-1:10000) were used. For ProteinSimple Wes system, manufacture's procedure was followed (ProteinSimple 12-230 kDa Wes Separation Module) for sample preparation, loading, running, and data analysis.
Phosphorylation of these sites has been linked to acute activation or catalytic activity of the PKC isoforms and Erk1/2. High level of phosphorylation indicates strong activation.
A subset of the diterpenoid compounds with good binding affinity to novel PKC isoforms and PKCμ was tested at two different concentrations in A549 cells to assess activation of PKCμ, PKCδ, and Erk1/2 by Western blot analysis. In addition to the phospho-specific antibodies described above, an additional phospho-specific antibody P-PKCδ (S299) (Abcam cat #133456) was also used. This antibody has been shown in the literature (Durgan et al., FEBS Lett. 2007, 581(18):3377-81, Novel phosphorylation site markers of protein kinase C delta activation) to be able to detect activation of PKCδ. K-101 (prostratin, 1 μM) was included as reference compounds.

KP-4 (Pancreatic) = assay: Proliferation of KP-4; assay type: cell-based; settings: read-out: IC50 KP-4 (Pancreatic)
Experimental: (§1) The diterpenoid compounds were tested in A549, a non-small cell lung cancer cell line harboring a K-Ras activating mutation. Briefly, A549 cells at a density of 1,000 cells/well were seeded in 96-well plates and incubated at 37° C. for 24 hours. A series of different concentrations of compound stocks (500×) were prepared by 3-fold serial dilution in DMSO. These compounds were further diluted in culture media and then added to cells so that the final DMSO concentration was not exceeding 0.25%. After 96 hours of incubation, 50 μL of CellTiter Glo reagent (Promega) was added to each well and luminescence was measured after 10 minutes using EnVision (PerkinElmer). Luminescence from cells treated with DMSO alone was set as Max and % of inhibition was calculated as follows: Inhibition %=(Max-Sample value)/Max×100. Data was analyzed using XL-fit software (ID Business Solutions Ltd.) and IC50, relative IC50, and % of top inhibition was calculated. Some of the compounds in this disclosure were very potent in blocking proliferation of A549 lung cancer cells at low nM range. In addition, potency of inhibiting A549 proliferation correlated well with its binding affinity to PKCs for this series of compounds. In other words, higher affinity binders had stronger inhibitory effects on A549 proliferation. This further support the notion that activation, rather than inhibition, of certain PKC isoforms is required to block proliferation of cancer cells, some of which may harbor K-Ras mutations. This is in sharp contrast to previous literature and common belief that inhibition of PKC is necessary to block cancer cell growth (Kang, 2014, New Journal of Science, 2014:1-36). Data presented here is in agreement with recent findings that many loss-of-function but not gain-of-function mutations of PKC isoforms have been identified in many human cancers (Antal et al., 2015, Cell, 160:489-502).
(§2) The compounds in this disclosure were tested for their potency in blocking proliferation of a few other cancer cells lines, including K-Ras mutant pancreatic cell lines Panc2.13 and KP-4, leukemia cell line HL-60, and lymphoma cell lines Namalwa and Mino. Similar procedures as in Example 67 were followed. Initial cell numbers seeded in 96-well plates were different for different cell lines: 3000 cells/well for Panc2.13; 800-1000 cells/well for KP-4; 5000 cells/well for HL-60; 5000-10000 cells/well for Namalwa and Mino. A ratio of (IC50 of K101)/(IC50 of compound) (data in parenthesis in Table 5) was used to normalize the compound potency from different assay batches to a common comparator K101.

Namalwa (Lymphoma) = assay: Proliferation of Namalwa; assay type: cell-based; settings: for IC50: read-out: IC50 Namalwa (Lymphoma)
Method in brief: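 Luminescent ATP read-out (CellTiter Glo) after 96 h compound exposure gave % inhibition relative to DMSO-treated cells, from which IC50 was fitted. Seeding densities were line-specific, from 800 to 10000 cells/well. Potency across batches was normalised to reference compound K101.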

Mino (Lymphoma) = assay: Proliferation of Mino; assay type: cell-based; settings: for IC50: Homo sapiens, MINO, read-out: IC50 Mino (Lymphoma)
Method in brief: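 Cells seeded per line (KP-4 800-1000, Panc2.13 3000, Namalwa and Mino 5000-10000 cells/well), 24 h at 37° C, then 96 h with 3-fold serial dilutions of compound, final DMSO ≤0.25%. CellTiter Glo luminescence read; % inhibition vs DMSO-only max, IC50 fitted. Potency also normalized as ratio to comparator K101 across batches.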

PANC1 cells = assay: Sphere formation assay; assay type: cell-based; settings: Homo sapiens, PANC-1, read-out: concentration exhibiting at least 50% inhibition on the sphere forming efficiency
Experimental: A group of diterpenoid compounds of the present disclosure were tested to assess their effects on blocking formation of spheres from cancer cell lines such as PANC1, a K-Ras mutant pancreatic cell line. Briefly, PANC1 cells were harvested, re-suspended as single cell suspensions, counted and seeded into Ultra Low Attachment Culture 96-well plate (Corning, Cat #3474) at 100 cells/well in 100 μl of complete media (with 10% FBS) containing 2% Matrigel (Corning, Cat #354234) and DMSO or compounds. Six replicates per condition were seeded. The seeded cells were placed in the 37° C. tissue culture incubator. 10 μl of low serum containing media (with 0.1% FBS) was added to each well every week. Spheres formed after 3-4 weeks were counted. Sphere forming efficiency was expressed as percentage of # of spheres/ # of cells seeded.

[2] = tested on: NFκB-driven transcription in HeLa-NFκB luciferase reporter cell line; assay: NFκB luciferase reporter assay; settings: Homo sapiens, HeLa, 16 h, read-out: NFκB-luc HeLa cells EC50 (μM)
A549 cell line = assay: Proliferation of A549 (CellTiter Glo); assay type: cell-based; settings: Homo sapiens, A549, 96 h, read-out: IC50 μM (A549 Cell Line)
Method in brief: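 A549 cells (K-Ras-mutant NSCLC) were seeded at 1,000 cells/well, allowed 24 h to settle, then exposed for 96 h to 3-fold serially diluted compound (final DMSO ≤0.25%). CellTiter Glo luminescence was read, and inhibition was calculated relative to DMSO-only wells. IC50, relative IC50 and % top inhibition came from curve fitting.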

Panc2.13 (Pancreatic) = assay: Proliferation of Panc2.13; assay type: cell-based; settings: for IC50: read-out: IC50 Panc2.13 (Pancreatic)
Experimental: as §1, §2

HL-60 (Leukemia) = assay: Proliferation of HL-60; assay type: cell-based; settings: for IC50: Homo sapiens
C1b domain of human PKCθ = target: T1, C1b domain of human PKCθ (Homo sapiens, UniProt Q04759); assay: biochemical; assay type: binding; settings: 3H-PDBu competition
T1 construct: Genes encoding C1b domains of human PKCα, δ, ε, θ, and PKD1 (PKCμ) were synthesized; made in house; host or cells: E. coli BL21(DE3)
T1 sequence (Q04759 231-281 limits assumed): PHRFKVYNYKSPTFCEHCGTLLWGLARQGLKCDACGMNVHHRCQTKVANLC
Method in brief: (§3)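 Recombinant GST-C1b domains (E. coli-expressed) or full-length human PKC competed against tracer ^3H-PDBu; incubation 10 min at 37°C then 20 min on ice, bound radioligand filter-trapped and scintillation-counted. IC50 fitted and converted to Ki via Cheng-Prusoff using experimentally determined Kd per protein preparation.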

C1b domain of human PKCδ = target: T2, C1b domain of human PKCδ (Homo sapiens, UniProt Q05655); assay: biochemical; assay type: binding; settings: 3H-PDBu competition
T2 construct: Genes encoding C1b domains of human PKCα, δ, ε, θ, and PKD1 (PKCμ) were synthesized; made in house; host or cells: E. coli BL21(DE3)
Method in brief: as §3

C1b domain of human PKCε = target: T3, C1b domain of human PKCε (Homo sapiens, UniProt Q02156); assay: biochemical; assay type: binding; settings: 3H-PDBu competition
T3 construct: Genes encoding C1b domains of human PKCα, δ, ε, θ, and PKD1 (PKCμ) were synthesized; made in house; host or cells: E. coli BL21(DE3)
Method in brief: as §3

[3] = HL-60, read-out: IC50 HL-60 (Leukemia)

T3 sequence (Q02156 242-292 limits assumed): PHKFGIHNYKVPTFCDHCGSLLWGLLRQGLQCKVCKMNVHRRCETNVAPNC
T2 sequence (Q05655 230-280 limits assumed): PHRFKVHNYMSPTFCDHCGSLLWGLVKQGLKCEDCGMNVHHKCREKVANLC

Structure (SMILES) | IC50 (KP-4 (Pancreatic)) | EC50 [2] | IC50 (A549 cell line) | ratio (IC50 of K101)/(IC50 of compound) Panc2.13 (Panc2.13 (Pancreatic)) | IC50 (Panc2.13 (Pancreatic)) | ratio (IC50 of K101)/(IC50 of compound) HL-60 (HL-60 (Leukemia)) | IC50 (HL-60 (Leukemia); [3]) | ratio (IC50 of K101)/(IC50 of compound) Namalwa (Namalwa (Lymphoma)) | IC50 (Namalwa (Lymphoma)) | ratio (IC50 of K101)/(IC50 of compound) Mino (Mino (Lymphoma)) | IC50 (Mino (Lymphoma)) | Ki (C1b domain of human PKCε) | IC50 (PANC1 cells) | phosphorylation of PKCμ, PKCδ and Erk1/2 ([1]; 3 μM) | further results
CC(=O)O[C@@]12C[C@@H](C)[C@@]3(O)[C@@H](C=C(CO)C[C@]4(O)C(=O)C(C)=C[C@@H]34)[C@@H]1C2(C)C [Compound K101, prostratin, reference compound] | 200 to 600 nM | 0.2 to 0.6 µM |  |  |  |  |  |  |  |  |  |  |  |  | phosphorylation of PKCμ, PKCδ and Erk1/2 ([1]; 1 μM): induced high levels of phosphorylation; IC50 (Namalwa (Lymphoma); 96 h): 100 to 600 nM; IC50 (Mino (Lymphoma); 96 h): 100 to 600 nM; IC50 (PANC1 cells; PANC1, spheres counted after 3-4 weeks): 5500 nM
CC1=C[C@H]2[C@@]3(O)[C@H](C)C[C@]4(OC(=O)[C@@H](N)Cc5ccc(C(F)(F)F)cc5)[C@H]([C@@H]3C=C(CO)C[C@]2(O)C1=O)C4(C)C |  | 0.06 to 0.1 µM | 0.06 to 0.1 µM | 6.79 | 100 to 200 nM | 6.43 | 30 to 60 nM | 1.68 | 30 to 60 nM | 6.2 | 10 to 30 nM |  |  |  | IC50 (KP-4 (Pancreatic); 96 h): 100 to 600 nM
CC1=C[C@H]2[C@@]3(O)[C@H](C)C[C@]4(OC(=O)[C@@H](N)CCc5ccccc5)[C@H]([C@@H]3C=C(CO)C[C@]2(O)C1=O)C4(C)C | 100 to 200 nM | 0.1 to 0.2 µM | 0.1 to 0.2 µM | 4.28 | 200 to 600 nM | 3.21 | 100 to 200 nM | 0.93 |  | 3.18 | 10 to 30 nM |  |  |  | Ki (C1b domain of human PKCθ): 10 to 30 nM; IC50 (Namalwa (Lymphoma); 96 h): 100 to 600 nM
CC1=C[C@H]2[C@@]3(O)[C@H](C)C[C@]4(OC(=O)[C@@H](N)C(C)(C)C)[C@H]([C@@H]3C=C(CO)C[C@]2(O)C1=O)C4(C)C |  |  | 0.2 to 0.6 µM |  |  |  |  |  |  |  |  | 60 to 100 nM | ≤ 1500 nM |  | Ki (C1b domain of human PKCδ): 10 to 30 nM
CC1=C[C@H]2[C@@]3(O)[C@H](C)C[C@]4(OC(=O)CCc5ccncc5)[C@H]([C@@H]3C=C(CO)C[C@]2(O)C1=O)C4(C)C |  |  | 1 to 2 µM |  |  |  |  |  |  |  |  |  |  | induced phosphorylation | 
CC1=C[C@H]2[C@@]3(O)[C@H](C)C[C@]4(OC(=O)CCc5ccccn5)[C@H]([C@@H]3C=C(CO)C[C@]2(O)C1=O)C4(C)C |  |  | 0.6 to 1 µM |  |  |  |  |  |  |  |  |  |  | induced phosphorylation | 
CC1=C[C@H]2[C@@]3(O)[C@H](C)C[C@]4(OC(=O)[C@H](N)Cc5ccccc5)[C@H]([C@@H]3C=C(CO)C[C@]2(O)C1=O)C4(C)C |  |  | 1 to 2 µM |  |  |  |  |  |  |  |  |  |  | induced phosphorylation | 
CC1=C[C@H]2[C@@]3(O)[C@H](C)C[C@]4(OC(=O)C(C)(C)C)[C@H]([C@@H]3C=C(CO)C[C@]2(O)C1=O)C4(C)C | 100 to 200 nM | 0.06 to 0.1 µM | 0.06 to 0.1 µM | 6.29 | 100 to 200 nM | 5.29 |  | 1.38 | 30 to 60 nM | 6.82 | 10 to 30 nM | 10 to 30 nM | ≤ 150 nM |  | Ki (C1b domain of human PKCδ): 10 to 30 nM; IC50 (HL-60 (Leukemia); HL-60, 96 h, read-out: IC50 HL-60 (Leukemia)): 100 to 600 nM
CC1=C[C@H]2[C@@]3(O)[C@H](C)C[C@]4(OC(=O)[C@@H](N)CCC5CCCCC5)[C@H]([C@@H]3C=C(CO)C[C@]2(O)C1=O)C4(C)C | 10 to 30 nM | 0.01 to 0.03 µM | 0.01 to 0.03 µM | 20.5 | 30 to 60 nM | 27.7 | 10 to 30 nM | 7.42 | 1 to 10 nM | 33 | 1 to 10 nM | 10 to 30 nM | ≤ 150 nM |  | Ki (C1b domain of human PKCθ): 10 to 30 nM
